One assay deals with BT-549. Description: Cytotoxicity against human BT549 cells assessed as reduction in cell viability after 24 hrs by MTT assay. Type of assay: functional, cell-based. The note with it: BT-549, 24 h.
The subject of a further assay is HeLa. The assay is described as follows: Cytotoxicity against human HeLa cells assessed as reduction in cell viability after 24 hrs by MTT assay. In kind it is functional, cell-based.
The next assay has as its system Vero. Description: Cytotoxicity against African green monkey Vero cells assessed as reduction in cell viability after 24 hrs by MTT assay. Type of assay: cell-based. Particulars: Chlorocebus sabaeus.
Another assay concerns Lu1. Description: Cytotoxicity against human Lu1 cells by SRB assay. Type of assay: functional, cell-based.
The test system of another assay is KB. The assay is described as follows: Cytotoxicity against human KB cells by SRB assay. In kind it is functional, cell-based.
The test system of another assay is SK-MEL-2. The assay is described as follows: Cytotoxicity against human SK-MEL-2 cells by SRB assay. Type of assay: functional, cell-based.
The nature of assay [1]: Inhibition of glutathione S-transferase (unknown origin). More on the design: species or system Homo sapiens.

`COc1ccc(CC2COc3ccccc3C2=O)cc1` (stereo not given): the IC50 was more than 100 µM with BT-549, more than 100 µM in the assay with HeLa and more than 200 µM with Vero.

Consider `COc1ccc(C[C@@H]2COc3cc(OC)c(C)c(O)c3C2=O)c(O)c1`, for which the IC50 in the assay on Lu1, in the assay on KB and in the assay on SK-MEL-2 was 0.51 to 0.66 µM each time.

On to `Cc1ccc2c(c1)OCC(Cc1ccc(O)cc1)C2=O` (stereo not given), for which the figures for the IC50 in the assay on BT-549, in the assay with HeLa and with Vero were 28.7 µM, 43 µM and more than 200 µM, respectively.

As for `COc1ccc(CC2COc3ccc(C)cc3C2=O)cc1` (stereo not given), the IC50 is more than 100 µM in the assay on BT-549, 76.3 µM with HeLa and more than 200 µM in the assay on Vero.

Regarding `COc1ccc2c(c1)OCC(Cc1ccc(O)cc1)C2=O` (stereo not given), the IC50 with BT-549 was 24.3 µM; with HeLa, 50.4 µM; with Vero, more than 200 µM.

For `COc1ccc(CC2COc3ccccc3C2=O)c(OC)c1OC` (stereo not given), the IC50 in the assay on BT-549 was more than 100 µM; with HeLa, more than 100 µM; in the assay on Vero, more than 200 µM.

Turning to `COc1ccc2c(c1)OCC(Cc1ccc(OC)c(O)c1)C2=O` (stereo not given), the IC50 was 30.6 µM in the assay with BT-549, 50.1 µM with HeLa and more than 200 µM in the assay on Vero.

With `COc1ccc2c(c1)C(=O)[C@@H](Cc1cc(O)cc(O)c1O)CO2`, in assay [1], inhibition was half-maximal at 17.1 µM (IC50).

For the compound `COc1ccc(CC2COc3cc(C)ccc3C2=O)cc1` (stereo not given), the IC50 in the assay on BT-549 was 42.1 µM; in the assay on HeLa it was 68.3 µM; with Vero, more than 200 µM.

For the compound `COc1ccc(CC2COc3ccccc3C2=O)c(OC)c1` (stereo not given), the IC50 in the assay on BT-549 is 61.9 µM; in the assay with HeLa it was 38.3 µM; with Vero, more than 200 µM.

For the compound `O=C1c2ccccc2OCC1Cc1ccc(Cl)cc1` (stereo not given), the figures for the IC50 with BT-549, in the assay with HeLa and with Vero were 69.3 µM, 61.9 µM and more than 200 µM, respectively.

In the case of `COc1ccc(CC2COc3ccccc3C2=O)cc1O` (stereo not given), the IC50 was more than 100 µM in the assay on BT-549, 20.4 µM with HeLa and more than 200 µM in the assay with Vero.

`O=C1c2cc(O)ccc2OC[C@@H]1Cc1cc(O)cc(O)c1O` returned an IC50 in assay [1] of 16.5 µM.

Turning to `COc1ccc(CC2COc3ccccc3C2=O)cc1OC` (stereo not given), the IC50 was more than 100 µM in the assay on BT-549, more than 100 µM with HeLa and more than 200 µM in the assay with Vero.

`COc1ccc(CC2COc3cccc(OC)c3C2=O)cc1O` (stereo not given): the IC50 in the assay on BT-549, in the assay with HeLa and with Vero was more than 200 µM each time.

Consider `Cc1ccc(CC2COc3ccccc3C2=O)cc1` (stereo not given), for which the IC50 was 42.2 µM in the assay on BT-549, 48.9 µM with HeLa and more than 200 µM in the assay on Vero.

`O=C1c2ccccc2OCC1Cc1ccc(F)cc1` (stereo not given): the IC50 in the assay on BT-549, in the assay with HeLa and in the assay with Vero was more than 200 µM each time.

With `O=C1c2ccccc2OCC1Cc1ccc(O)cc1` (stereo not given), the IC50 with BT-549 is 20.1 µM; in the assay with HeLa it was 42.8 µM; with Vero it was more than 200 µM.

The values above are taken from ChEMBL document CHEMBL4177629, “Synthesis, anticancer, structural, and computational docking studies of 3-benzylchroman-4-one derivatives” (Bioorg Med Chem Lett, 2017).
